Laboratory results from patent publication US20240043474A1, “ANTI-INFLAMMATORY PEPTIDE FOR PREVENTING OR TREATING ATOPIC DERMATITIS” (AJOU UNIVERSITY INDUSTRY-ACADEMIC COOPERATION FOUNDATION, priority 2020, published 2024).
Entries after “also recorded” stand apart in the source; their conditions may differ. Square brackets hold non-standard residues; d marks the D form. Primed or numbered codes have the meaning given here. Ends that are not written are not given here. Peptide text beside a SMILES is read from it. * marks the point of attachment. PEG2′ = N-terminal cap of 2 polyethylene glycol units (PEG2); PEG4′ = N-terminal cap of 4 polyethylene glycol units (PEG4); 5FAM = O=C1OC2(c3ccc(O)cc3Oc3cc(O)ccc32)c2ccc(C(=O)*)cc21; Butanoyl(4-maleimido) = O=C1C=CC(=O)N1CCCC(=O)*; Stearoyl = CCCCCCCCCCCCCCCCCC(=O)*; Palmitoyl = CCCCCCCCCCCCCCCC(=O)*; Myristoyl = CCCCCCCCCCCCCC(=O)*; Hexanoyl = CCCCCC(=O)*

Legend:
peritoneal macrophages [1] = test: Fluorescence-expressing peritoneal macrophages after intraperitoneal fluorescently labeled peptide, FACS; type: in vivo, mouse
[2] = Skin tissue penetrability, confocal microscopy of skin after topical fluorescent peptide; type: in vivo, mouse; conditions: 1 μg applied to skin of ICR mice, with or without needle scratch, skin collected 2 hours later; FIG. 5
Text: To determine the skin tissue penetration of the A900 peptide, peptide A900 peptide (A900-FAM) with fluorescent substance FAM (Carboxyfluorescein) attached to the N-terminus of A900 peptide was applied to the skin of ICR 4-week-old mice.

peritoneal macrophages [3] = test: Intracellular expression and frequency of peptide in cultured peritoneal macrophages, confocal microscopy and FACS; type: cell-based, mouse; conditions: 1 μg/mL, FIG. 8
Description: Peritoneal macrophages were isolated from the same mouse used in FIG. 7 to culture the cell suspension. Anti-CD3 (1 μg/ml) antibodies were plated on a petri dish at room temperature for 3 hours and cells were inoculated (5×10^5 cells/well). After 1 hour, anti-CD28 antibodies (1 μg/ml), IL-23 (20 ng/ml), IL-6 (20 ng/ml), and TGF-β (5 ng/ml) were added.

lymph node cells = test: Intracellular expression and frequency of peptide in cultured lymph node cells, confocal microscopy and FACS; type: cell-based, mouse; conditions: 1 μg/mL, FIG. 7
IL-4, IL-31, IL-17 = test: Cytokine expression in spleen by real-time PCR after treating atopic skin lesions with external preparation; type: in vivo, mouse; conditions: external preparation on skin lesions, FIG. 9
[4] = tested on: IL-4R alpha, CCR3 and CTLA-4 positive cells; test: FACS of splenocytes from atopic dermatitis mice after external preparation for five days; type: in vivo, mouse; conditions: FIG. 2
Description: In order to identify whether the peptide that has the effect of alleviating atopic dermatitis inflammation has an immunoregulatory function, splenocytes and peripheral blood leukocytes (PBLs) were separately isolated after administrating the external preparation into the mouse skin for five days, surface staining was performed with antibodies for FACS, and then the frequency of cells expressing interleukin 4 receptor (IL-4R) alpha, C—C chemokine receptor type 3 (CCR3), and cytotoxic T-lymphocyte-associated protein 4 (CTLA-4) was analyzed via flow cytometry. Dupixent was administered in a form of a peritoneal injection and tested as a control group.

[5] = tested on: IL-13, IL-4, TNF alpha, IL-17; test: Cytokines in mice having atopic dermatitis after peptide A900 treatment (summary statement); type: in vivo, mouse
IL-4, IL-13, IL-21 = test: Real-time PCR of cytokines in splenocytes and lymph node cells from atopic mice cultured with peptides; type: cell-based, mouse; conditions: 24 hours, compared to untreated control (ADC), FIGS. 11 and 12
[6] = tested on: cells secreting atopy associated cytokines; test: In vivo FACS of intracellular cytokines in PBLs after external preparation for 5 days in atopic mice; design: species or system mouse; conditions: external preparation 1 μg/ml for 5 days, compared to ADC mice given PBS, FIG. 13
Description: (§1) After removing hair from 6-week-old Balb/c male mice, application was performed with 1% DNCB 1 time/day for 2 days and 0.5% DNCB 1 time/day for 3 days for a total of 5 days, to induce atopic symptoms (N=5-8 mice for each group). After administering the external preparation to mouse skin for 5 days in mice having atopic symptoms, peripheral blood leukocytes (PBLs) were isolated and the frequency of each cytokine expressing cell was analyzed and compared after intracellular staining with antibodies for FACS. The control group was given with an anti-inflammatory moisturizing cream external preparation (5 times) and administered with an anti-mouse IL-4 receptor antibody (100 ug/mouse) intraperitoneal injection (1 time). A900, A900M, A900MAL, and A900PEG4 were used for peptides, and the concentration was set to 1 μg/ml. Cytokines were subjected to intracellular staining to measure the frequency of stained cell population.

[7] = tested on: atopic dermatitis induced with dinitrochlorobenzene (DNCB); test: DNCB-induced atopic dermatitis mouse model, peptide applied as external preparation; type: in vivo; conditions: FIG. 1
Description: Experimental mice were bred in a 12-hour light/dark cycle, free of pathogens at a constant temperature of 23° C. and 55% humidity. After an adaptation period of several days, DNCB-induced atopic dermatitis was induced in mice by the following method.
First, the hair in the dorsal skin area was carefully shaved using a hair removal cream, and then 100 μL of 1% dinitrochlorobenzene (DNCB) dissolved in acetone was locally treated to exposed skin once a day for 3 days to sensitize the skin and induce atopic dermatitis.
A positive control group obtained by treating mice having atopic dermatitis with anti-inflammatory moisturizing cream (Control Cream) and Dupixent injection which is a therapeutic agent for atopic dermatitis was compared with a peptide (A900 peptide) treated group.

IL-4 = IL-4 expression in splenocytes of treated atopic dermatitis mice by real-time PCR; type: in vivo, mouse; conditions: FIG. 4
[8] = tested on: CD11b+Ly6G+, CD83+ and Foxp3+ positive cells; test: FACS of peripheral blood leukocytes (PBLs) from atopic dermatitis mice after peptide administration; type: in vivo, mouse; conditions: FIG. 3
[9] = tested on: CD4 T cells secreting atopy associated cytokines; test: Ex vivo FACS of PBMCs from atopic mice cultured with peptides; type: cell-based, mouse; conditions: 3 μg/ml, 24 hours, compared to untreated control group (ADC), FIG. 10
Description: After removing hair from 6-week-old Balb/c male mice, application was performed with 1% DNCB 1 time/day for 2 days and 0.5% DNCB 1 time/day for 3 days for a total of 5 days to induce atopic symptoms. PBMCs were isolated from atopic mice, seeded in 24 well plates, treated with peptides, cultured for 24 hours, and then analyzed by FACS. PBMCs isolated from normal mice and atopy-induced mice were used as control groups, and peptides were treated to PBMC cultures isolated from atopic mice. Dupixent was used for the peptide control group (Dupixent 5 μg/ml). A900, A900P, A900H, A900S, A900M, A900MAL, A900PEG2, and A900PEG4 were used as the peptides, and the concentration was set to 3 μg/ml. Surface was stained with anti-CD4 antibodies, cytokines were subjected to intracellular staining, and the frequency of double stained population was measured.

[10] = tested on: CD4 cells secreting IL-13 and IL-31; test: In vivo FACS of cytokine-expressing CD4 cells in PBLs after external preparation in atopic mice; design: species or system mouse; conditions: external preparation 1 μg/ml for 5 days, FIG. 14
Description: as §1
Peripheral blood leukocytes (PBLs) isolated from the same mice as in FIG. 13 were isolated and subjected to CD4 surface staining and intracellular staining with antibodies for FACS to analyze and compare the frequency of each cytokine-expressing CD4 cell.

[11] = external preparation for five days
[12] = PBLs of mice having atopic dermatitis

Compound | expression of IL-4 (IL-4, IL-31, IL-17) | expression of IL-17 (IL-4, IL-31, IL-17) | expression of IL-31 (IL-4, IL-31, IL-17) | IL-4 expression (IL-4, IL-13, IL-21) | IL-13 expression (IL-4, IL-13, IL-21) | IL-21 expression (IL-4, IL-13, IL-21) | frequency of CD4 T cells secreting atopy associated cytokines [9] | further results
CC[C@H](C)[C@H](NC(=O)[C@H](CCC(=O)O)NC(=O)CNC(=O)[C@H](CS)NC(=O)[C@H](CCCNC(=N)N)NC(=O)[C@H](CC(C)C)NC(=O)[C@@H](NC(=O)[C@@H](NC(=O)[C@@H](NC(=O)[C@H](CS)NC(=O)CNC(=O)c1ccc2c(c1)C(=O)OC21c2ccc(O)cc2Oc2cc(O)ccc21)C(C)C)[C@@H](C)O)C(C)C)C(=O)N[C@H](C(=O)O)C(C)C [A900-FAM] (5FAM-GCVTVLRCGEIV-OH) |  |  |  |  |  |  |  | fluorescence-expressing cells (peritoneal macrophages [1]; 3 μg into abdominal cavity, after 3 hours, FIG. 6): barely detected; peritoneal macrophages expressing fluorescence (peritoneal macrophages [1]; 3 μg into abdominal cavity, at 30 minutes, FIG. 6): 50%; peritoneal macrophages expressing fluorescence (peritoneal macrophages [1]; 3 μg into abdominal cavity, at 1 hour, FIG. 6): 23%; time the peptide is maintained in the cell (peritoneal macrophages [1]; 3 μg intraperitoneally, cells in the abdominal cavity): more than 1 hour; skin tissue penetration (fluorescence in skin tissue) [2]: fluorescence was detected in both the epidermis and dermis; cell frequency expressing peptide (peritoneal macrophages [3]; 1-hour culture group): 10%; cell frequency expressing peptide (peritoneal macrophages [3]; 24-hour culture group): 15%; cell frequency expressing peptide (lymph node cells; 1-hour treated group): 20%; cell frequency expressing peptide (lymph node cells; 24-hour treated group): 40%
GCESEILCGEIV [A907] | inhibited | inhibited | inhibited |  |  |  |  | 
GCETELRCGEIV [A903] | inhibited | inhibited | inhibited |  |  |  |  | 
GCETVLRCGEIV [A901] | inhibited | inhibited | inhibited |  |  |  |  | 
GCLRCGEIV [A914] | inhibited | inhibited | inhibited |  |  |  |  | 
GCVTELRCGEIV [A902] | inhibited | inhibited | inhibited |  |  |  |  | 
GCVTVCGEIV [A911] | inhibited | inhibited | inhibited |  |  |  |  | 
GCVTVLRCGEIV [A900] | inhibited | inhibited | inhibited | inhibited | inhibited | inhibited | inhibited | degree of inhibition of IL-4R alpha, CCR3 and CTLA-4 positive cells compared with control administered group ([4]; control Dupixent peritoneal injection): more effective than that of the control administered group; frequency of CCR3 positive cells [4, 11]: tended to be inhibitive; also recorded: decreased; frequency of CTLA-4 positive cells [4, 11]: tended to be inhibitive; also recorded: decreased; frequency of IL-4R alpha positive cells [4, 11]: tended to be inhibitive; also recorded: decreased; cytokines such as IL-13, IL-4, TNF alpha, and IL-17 [5]: reduced; frequency of cells secreting atopy associated cytokines [6]: inhibited; atopic dermatitis symptoms ([7]; external preparation applied to mice with DNCB-induced atopic dermatitis): alleviated; speed of appearance of the effect compared with control group ([7]; versus Control Cream / Dupixent injection positive control): faster than the control group; IL-4 expression (IL-4): inhibited; frequency of CD11b+Ly6G+ positive cells [8, 12]: inhibited; frequency of CD83+ positive cells [8, 12]: inhibited; frequency of Foxp3+ positive cells [8, 12]: increased; degree of inhibition of CD11b+Ly6G+ and CD83+ positive cells compared with control administered group ([8]; PBLs): more effective than in the control administered group
Hexanoyl-GCVTVLRCGEIV (cysteine pairing not given here) [A900H] |  |  |  | inhibited | inhibited | inhibited |  | 
Maleimidobutyrol-GCVTVLRCGEIV ({Butanoyl(4-maleimido)}-GCVTVLRCGEIV; cysteine pairing not given here) [A900MAL] |  |  |  | inhibited | inhibited | inhibited | inhibited | frequency of cells secreting atopy associated cytokines [6]: inhibited; frequency of CD4 cells secreting IL-13 [10]: inhibited; frequency of CD4 cells secreting IL-31 [10]: inhibited
Myristoyl-GCVTVLRCGEIV (cysteine pairing not given here) [A900M] |  |  |  | inhibited | inhibited | inhibited | inhibited | frequency of cells secreting atopy associated cytokines [6]: inhibited
PEG2-GCVTVLRCGEIV ([PEG2′]GCVTVLRCGEIV; cysteine pairing not given here) [A900PEG2] |  |  |  | inhibited | inhibited | inhibited |  | 
PEG4-GCVTVLRCGEIV ([PEG4′]GCVTVLRCGEIV; cysteine pairing not given here) [A900PEG4] |  |  |  | inhibited | inhibited | inhibited | inhibited | frequency of cells secreting atopy associated cytokines [6]: inhibited
Palmitoyl-GCVTVLRCGEIV (cysteine pairing not given here) [A900P] |  |  |  | inhibited | inhibited | inhibited | inhibited | 
Stearoyl-GCVTVLRCGEIV (cysteine pairing not given here) [A900S] |  |  |  |  |  |  | inhibited | 
